Source: ChEMBL document CHEMBL4184288, “Marine bis-γ-pyrone polypropionates of onchidione family and their effects on the XBP1 gene expression” (Bioorg Med Chem Lett, 2018)
Calls of active or inactive are those of the source. No cut-off for these calls is given here.

Assays:
Mus musculus [1] = species on record: Mus musculus; assay: Activation of XBP1 mRNA splicing in tunicamycin-stimulated mouse B16F10 cells harboring XBP1-DBD-luc treated 24 hrs post tunicamycin measured after 8 hrs by luciferase reporter gene assay relative to control
Mus musculus [2] = species on record: Mus musculus; assay: Activation of XBP1 mRNA splicing in tunicamycin-stimulated mouse B16F10 cells harboring XBP1-DBD-luc at 10 ug/ml treated 24 hrs post tunicamycin measured after 8 hrs by luciferase reporter gene assay relative to control
Mus musculus [3] = species on record: Mus musculus; assay: Activation of XBP1 mRNA splicing in tunicamycin-stimulated mouse B16F10 cells harboring XBP1-DBD-luc at 1 ug/ml after 8 hrs by luciferase reporter gene assay relative to control

SMILES	Activity (Mus musculus [1])	Activity (Mus musculus [2]) [%]	fold change (FC) (Mus musculus [2])	Activity (Mus musculus [3]) [%]
CCC(=O)[C@H](C)c1oc([C@H](C)[C@@H]2O[C@](O)([C@@H](C)c3oc(CC)c(C)c(=O)c3C)[C@@H](C)[C@@H](OC(=O)CC(C)C)[C@@H]2C)c(C)c(=O)c1C	–	210	2	–
CCCCCCCCCCCCC/C=C/C(=O)N[C@H]1[C@H](O[C@H]2O[C@H](CO)[C@@H](O)[C@H](O)[C@H]2NC(C)=O)O[C@H](CC(O)[C@H]2O[C@@H](n3ccc(=O)[nH]c3=O)[C@H](O)[C@@H]2O)[C@H](O)[C@@H]1O (some centres undefined)	–	–	–	178
CCC(=O)[C@@H](C)c1oc([C@H](C)[C@@H]2O[C@](O)([C@@H](C)c3oc(CC)c(C)c(=O)c3C)[C@@H](C)[C@@H](OC(=O)CC(C)C)[C@@H]2C)c(C)c(=O)c1C	–	218	2	–

Further lines, with some results ahead:

Activity (Mus musculus [1])	Activity (Mus musculus [2]) [%]	fold change (FC) (Mus musculus [2])	SMILES	Activity (Mus musculus [3]) [%]
inactive	–	–	CCc1oc([C@H](C)[C@@]2(O)O[C@@H]([C@@H](C)c3oc([C@@H](C)[C@@H](O)CC)c(C)c(=O)c3C)[C@@H](C)[C@H](OC(=O)CC(C)C)[C@@H]2C)c(C)c(=O)c1C	–
–	234	2	CCc1oc([C@H](C)[C@@]2(O)O[C@@H]([C@@H](C)c3oc([C@@H](C)[C@H](CC)OC(C)=O)c(C)c(=O)c3C)[C@@H](C)[C@H](OC(=O)CC(C)C)[C@@H]2C)c(C)c(=O)c1C	–
inactive	–	–	CCC(=O)O[C@@H](CC)[C@H](C)c1oc([C@H](C)[C@@H]2O[C@](O)([C@@H](C)c3oc(CC)c(C)c(=O)c3C)[C@@H](C)[C@@H](OC(=O)CC(C)C)[C@@H]2C)c(C)c(=O)c1C	–
